From ChEMBL document CHEMBL4265892, “New series of 3,5-disubstituted tetrahydro-2H-1,3,5-thiadiazine thione (THTT) derivatives: Synthesis and potent antileishmanial activity” (Bioorg Med Chem Lett, 2018)

Assays:
Leishmania major = assay: Antileishmanial activity against Leishmania major promastigotes after 72 hrs by Neubauer chamber based cell counting method; format: functional, organism-based
[1] = Cytotoxicity against […] 3T3 cells assessed as inhibition of cell viability at 50 uM after 48 hrs by MTT assay; format: cell-based; conditions: read-out: INH
[2] = Cytotoxicity against […] 3T3 cells after 48 hrs by MTT assay; format: cell-based

| Structure (SMILES) | IC50 (Leishmania major) | also measured |
| --- | --- | --- |
| CCCN1CN(CC(=O)O)CSC1=S | 39.3 µM | cytotoxicity at 48 h, 50 µM [1]: 56.6%; IC50 ([2]; NIH3T3, 48 h, read-out: IC50): 38.1 µM |
| CCCN1CSC(=S)N(CC(=O)O)C1 | 69.6 µM |  |
| C[C@@H]1C[C@@H]([C@H](O)CC2CC(=O)NC(=O)C2)C(=O)[C@@H](C)C1 [CYCLOHEXIMIDE] |  | cytotoxicity at 48 h, 50 µM [1]: 66%; IC50 ([2]; NIH3T3, 48 h, read-out: IC50): 0.61 µM |
| CCCN1CN(CC(=O)OCc2ccccc2)CSC1=S | 93.1 µM |  |
| CCCN1CN(CC(=O)OC)CSC1=S | 203 µM | cytotoxicity at 48 h, 50 µM [1]: 36.9%; IC50 [2]: Not Active |
| CCN1CSC(=S)N(CC(=O)O)C1 | 45.8 µM |  |
| O=C(O)CN1CN(CCO)CSC1=S | 39.4 µM |  |
| CCN1CSC(=S)N(C(C)c2ccccc2)C1 (stereo not given) | 46.2 µM |  |
| CC(C)N1CN(CC(=O)O)CSC1=S | 137 µM |  |
| CCN1CSC(=S)N(CC)C1 | 38.4 µM |  |
| CCCN1CN(CC(=O)OCC)CSC1=S | 107 µM |  |

Second part, led by results:

| IC50 (Leishmania major) | Structure (SMILES) | also measured |
| --- | --- | --- |
| 15.5 µM | COc1ccc(CN2CN(CC(=O)O)CSC2=S)cc1OC | cytotoxicity at 48 h, 50 µM [1]: 86.8%; IC50 ([2]; NIH3T3, 48 h, read-out: IC50): 22.7 µM |
| 21.4 µM | CCCCN1CSC(=S)N(C(C)c2ccccc2)C1 (stereo not given) |  |
| 24.2 µM | CCCN1CSC(=S)N(C(C)c2ccccc2)C1 (stereo not given) |  |
| 32.2 µM | CC(c1ccccc1)N1CN(CCO)CSC1=S (stereo not given) |  |
| 33.1 µM | CCN1CN(CC(=O)O)CSC1=S |  |
| 36.5 µM | CCCCN1CN(CC(=O)OCC)CSC1=S |  |
| 24.6 µM | CCCCN1CN(CC(=O)O)CSC1=S |  |
| 15 µM | N=C(N)c1ccc(OCCCCCOc2ccc(C(=N)N)cc2)cc1 [PENTAMIDINE] |  |
| 0.31 µM | C[C@@H]1[C@H](O)[C@@H](C)/C=C/C=C/C=C/C=C/C=C/C=C/C=C/[C@H](O[C@@H]2O[C@H](C)[C@@H](O)[C@H](N)[C@@H]2O)C[C@@H]2O[C@](O)(C[C@@H](O)C[C@@H](O)[C@H](O)CC[C@@H](O)C[C@@H](O)CC(=O)O[C@H]1C)C[C@H](O)[C@H]2C(=O)O [AMPHOTERICIN B] |  |
| 36.6 µM | CCCCN1CSC(=S)N(CC(=O)O)C1 |  |
| 21.4 µM | CC(C)N1CSC(=S)N(C(C)c2ccccc2)C1 (stereo not given) |  |
| 30.7 µM | CC(c1ccccc1)N1CN(CC(=O)O)CSC1=S (stereo not given) |  |
